Data: the supplement of paper PMC4862054

Tested on: CAL-120
Test: normalised response (% of control), CellTox Green; higher = less cell death (100 = DMSO, 0 = benzethonium chloride kill control)
Conditions: incubation time: 72 h
Procedure, shortened: (§1)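 Normalised signals at single concentrations make up the values. They come from breast cancer cell lines seeded (20 µl suspension) into 384-well plates with compound at 5 concentrations in 10-fold steps over a compound-specific 10,000-fold range, incubated 72 h, and read for CellTox Green fluorescence then CellTiter-Glo luminescence. Each plate was normalised to 0.1 % DMSO (100) and a positive kill control (0).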

Going from CC(C)(C)c1cc(NC(=O)Nc2ccc(-c3cn4c(n3)sc3cc(OCCN5CCOCC5)ccc34)cc2)no1 [Quizartinib] (1000 nM) to O=C(c1ccc(OCCN2CCCCC2)cc1)c1c(-c2ccc(O)cc2)sc2cc(O)ccc12 [Raloxifene] (1000 nM), the normalised response rises from 103% to 104%.

Compared with COc1cccc2c1C(=O)c1c(O)c3c(c(O)c1C2=O)C[C@@](O)(C(C)=O)C[C@@H]3O[C@H]1C[C@H](N)[C@H](O)[C@H](C)O1 [Daunorubicin] (100 nM), CCS(=O)(=O)c1cccc(-c2cc(C(=O)NC3CCN(C)CC3)c(C)c3[nH]c4ncc(C)cc4c23)c1 [TAK-901] (100 nM) is lower in normalised response: 105% for the first, 102% for the second.

Compared with O=c1[nH]cc(F)c(=O)[nH]1 [Fluorouracil] (10000 nM), O=c1[nH]c(=O)n([C@H]2C[C@H](O)[C@@H](CO)O2)cc1F [Floxuridine] (10000 nM) is lower in normalised response: 105% for the first, 93.8% for the second.

Going from CC(C)(C)c1cc(NC(=O)Nc2ccc(-c3cn4c(n3)sc3cc(OCCN5CCOCC5)ccc34)cc2)no1 [Quizartinib] (100 nM) to CS(=O)(=O)CCNCc1ccc(-c2ccc3ncnc(Nc4ccc(OCc5cccc(F)c5)c(Cl)c4)c3c2)o1 [Lapatinib] (1000 nM), the normalised response falls from 99.7% to 99.2%.

First: CS(=O)(=O)OCCCCOS(C)(=O)=O [Busulfan] (100000 nM)
Second: CCCC(CCC)C(=O)O [Valproic acid] (10000 nM)
The normalised response of the first is lower: 101% for the first, 106% for the second.

Compared with Cn1cnc2c(F)c(Nc3ccc(Br)cc3F)c(C(=O)NOCCO)cc21 [MEK-162] (1000 nM), COC1=CC(c2cc3ccccc3[nH]2)=N/C1=C\c1[nH]c(C)cc1C [Obatoclax] (1000 nM) is lower in normalised response: 93.1% for the first, 90.5% for the second.

O=c1[nH]c(=O)n([C@H]2C[C@H](O)[C@@H](CO)O2)cc1F [Floxuridine] (1000 nM) was tested, and the normalised response was 98.4%.

Tested on: MDA-MB-436
Test: as above
Conditions: incubation time: 72 h
Procedure, shortened: as §1

Compared with COc1cccc2c1C(=O)c1c(O)c3c(c(O)c1C2=O)C[C@@](O)(C(C)=O)C[C@@H]3O[C@H]1C[C@H](N)[C@H](O)[C@H](C)O1 [Daunorubicin] (1000 nM), COC1=C2C[C@@H](C)C[C@H](OC)[C@H](O)[C@@H](C)/C=C(\C)[C@H](OC(N)=O)[C@@H](OC)/C=C\C=C(/C)C(=O)NC(=CC1=O)C2=O [Geldanamycin] (1000 nM) is higher in normalised response: 47.9% for the first, 92.2% for the second.

First: Cn1c(=O)c(F)c(Nc2ccc(I)cc2F)c2c(=O)n(C[C@@H](O)CO)cnc21 [TAK-733] (100 nM)
Second: Cn1cnc2c(F)c(Nc3ccc(Br)cc3F)c(C(=O)NOCCO)cc21 [MEK-162] (1000 nM)
The normalised response of the first is higher: 104% for the first, 79.9% for the second.

Going from C[C@@H]1C=C2C(=O)O[C@@H]3CC[C@H](C1)[C@]23O [Galiellalactone] (50000 nM) to O=c1[nH]c(=O)n([C@H]2C[C@H](O)[C@@H](CO)O2)cc1F [Floxuridine] (10000 nM), the normalised response falls from 105% to 99.9%.

Going from C[C@@H]1C=C2C(=O)O[C@@H]3CC[C@H](C1)[C@]23O [Galiellalactone] (5000 nM) to O=c1[nH]c(=O)n([C@H]2C[C@H](O)[C@@H](CO)O2)cc1F [Floxuridine] (1000 nM), the normalised response rises from 96.5% to 108%.

Going from COc1ccc(C2=N[C@@H](c3ccc(Cl)cc3)[C@@H](c3ccc(Cl)cc3)N2C(=O)N2CCNC(=O)C2)c(OC(C)C)c1 [Nutlin-3] (1000 nM) to O=C(c1ccc(OCCN2CCCCC2)cc1)c1c(-c2ccc(O)cc2)sc2cc(O)ccc12 [Raloxifene] (10000 nM), the normalised response rises from 92.7% to 104%.

Going from COC1=CC(c2cc3ccccc3[nH]2)=N/C1=C\c1[nH]c(C)cc1C [Obatoclax] (10000 nM) to CN1CCN(c2ccc3nc(-c4c(N)c5c(F)cccc5[nH]c4=O)[nH]c3c2)CC1 [Dovitinib] (10000 nM), the normalised response rises from 102% to 108%.

Going from COc1ccc(C2=N[C@@H](c3ccc(Cl)cc3)[C@@H](c3ccc(Cl)cc3)N2C(=O)N2CCNC(=O)C2)c(OC(C)C)c1 [Nutlin-3] (10000 nM) to O=C(c1ccc(OCCN2CCCCC2)cc1)c1c(-c2ccc(O)cc2)sc2cc(O)ccc12 [Raloxifene] (1000 nM), the normalised response rises from 95% to 107%.

Going from CC(C)(C)c1cc(NC(=O)Nc2ccc(-c3cn4c(n3)sc3cc(OCCN5CCOCC5)ccc34)cc2)no1 [Quizartinib] (1000 nM) to CS(=O)(=O)CCNCc1ccc(-c2ccc3ncnc(Nc4ccc(OCc5cccc(F)c5)c(Cl)c4)c3c2)o1 [Lapatinib] (1000 nM), the normalised response rises from 71.8% to 98.7%.

Compared with COc1cccc2c1C(=O)c1c(O)c3c(c(O)c1C2=O)C[C@@](O)(C(C)=O)C[C@@H]3O[C@H]1C[C@H](N)[C@H](O)[C@H](C)O1 [Daunorubicin] (100 nM), CCS(=O)(=O)c1cccc(-c2cc(C(=O)NC3CCN(C)CC3)c(C)c3[nH]c4ncc(C)cc4c23)c1 [TAK-901] (100 nM) is lower in normalised response: 98.2% for the first, 96.8% for the second.

First: O=c1[nH]cc(F)c(=O)[nH]1 [Fluorouracil] (10000 nM)
Second: COC1=CC(c2cc3ccccc3[nH]2)=N/C1=C\c1[nH]c(C)cc1C [Obatoclax] (1000 nM)
The normalised response of the first is lower: 75.7% for the first, 91.5% for the second.

Compared with CC(C)(C)c1cc(NC(=O)Nc2ccc(-c3cn4c(n3)sc3cc(OCCN5CCOCC5)ccc34)cc2)no1 [Quizartinib] (100 nM), CS(=O)(=O)OCCCCOS(C)(=O)=O [Busulfan] (100000 nM) is higher in normalised response: 66.7% for the first, 95.6% for the second.

CCCC(CCC)C(=O)O [Valproic acid] (10000 nM) was tested, and the normalised response was 117%.

Tested on: Hs578T
Test: as above
Conditions: incubation time: 72 h
Procedure, shortened: as §1

First: COc1cccc2c1C(=O)c1c(O)c3c(c(O)c1C2=O)C[C@@](O)(C(C)=O)C[C@@H]3O[C@H]1C[C@H](N)[C@H](O)[C@H](C)O1 [Daunorubicin] (1000 nM)
Second: COC1=C2C[C@@H](C)C[C@H](OC)[C@H](O)[C@@H](C)/C=C(\C)[C@H](OC(N)=O)[C@@H](OC)/C=C\C=C(/C)C(=O)NC(=CC1=O)C2=O [Geldanamycin] (1000 nM)
The normalised response of the first is higher: 144% for the first, 91.1% for the second.

Compared with C[C@@H]1C=C2C(=O)O[C@@H]3CC[C@H](C1)[C@]23O [Galiellalactone] (50000 nM), COc1cccc2c1C(=O)c1c(O)c3c(c(O)c1C2=O)C[C@@](O)(C(C)=O)C[C@@H]3O[C@H]1C[C@H](N)[C@H](O)[C@H](C)O1 [Daunorubicin] (100 nM) is lower in normalised response: 122% for the first, 90.7% for the second.

Compared with C[C@@H]1C=C2C(=O)O[C@@H]3CC[C@H](C1)[C@]23O [Galiellalactone] (5000 nM), CCS(=O)(=O)c1cccc(-c2cc(C(=O)NC3CCN(C)CC3)c(C)c3[nH]c4ncc(C)cc4c23)c1 [TAK-901] (100 nM) is lower in normalised response: 112% for the first, 76.4% for the second.

First: COc1ccc(C2=N[C@@H](c3ccc(Cl)cc3)[C@@H](c3ccc(Cl)cc3)N2C(=O)N2CCNC(=O)C2)c(OC(C)C)c1 [Nutlin-3] (1000 nM)
Second: CC(C)(C)c1cc(NC(=O)Nc2ccc(-c3cn4c(n3)sc3cc(OCCN5CCOCC5)ccc34)cc2)no1 [Quizartinib] (100 nM)
The normalised response of the first is lower: 61.6% for the first, 113% for the second.

Going from COC1=CC(c2cc3ccccc3[nH]2)=N/C1=C\c1[nH]c(C)cc1C [Obatoclax] (10000 nM) to COc1ccc(C2=N[C@@H](c3ccc(Cl)cc3)[C@@H](c3ccc(Cl)cc3)N2C(=O)N2CCNC(=O)C2)c(OC(C)C)c1 [Nutlin-3] (10000 nM), the normalised response falls from 129% to 115%.

First: O=c1[nH]cc(F)c(=O)[nH]1 [Fluorouracil] (10000 nM)
Second: CS(=O)(=O)OCCCCOS(C)(=O)=O [Busulfan] (100000 nM)
The normalised response of the first is lower: 118% for the first, 123% for the second.
